Data: patent publication US6358694B1, “Methods of identifying modulators of a prostaglandin receptor” (Merck Frosst Canada & Co., priority 1993, dated 2002)
pIC50: −log10 of the molar value.

Assays:
[1] = target: T1, FP receptor (Homo sapiens, UniProt P43088); experiment: electrophysiological assay (Ca2+-dependent Cl- current) in pcDNAIamp-FP-injected Xenopus oocytes; type: cell-based; conditions: perfusion of 10 nM, oocyte voltage clamped at -60 mV
T1 construct: A long open reading frame (1077 bp) was determined which would result in a 359 amino acid polypeptide; expressed in transfected cells; host or cells: Xenopus laevis oocytes (stage 5-6), nuclear injection of 1-5 ng pcDNAIamp-FP plasmid
Method: (§1) Ooctyes were taken from adult females of Xenopus laevis using standard surgical procedure (Colman, A., 1984 In: Transcription and Translation—A Practical Approach, IRL Press). To remove follicle cells, oocytes were treated for 2-3 h with freshly made collagenase (2 mg/ml, type 2, Worthington Biochemical Corp., Freehold, N.J.) in Ca^2+-free ND96 solution (ND96 in mM: NaCl 96, KCl 2, MgCl2 1, HEPES 5, Na-pyruvate 2.5, theophylline 0.5, gentamicin […], +1.8 CaCl2, pH 7.6). Defolliculated stage 5-6 oocytes were selected and maintained in ND96 solution. Ooctye nuclei were injected with 1-5 ng of pcDNAIamp-PP and then incubated at 18° C. for 48 h before challenge with agonist. Functional activity was determined by measurement of either agonist-induced Ca^2+-dependent Cl^− current or light emission in oocytes injected with the Ca^2+-specific photoprotein aequorin (J. Blinks, Friday Harbor Photoproteins, Wash.), (Giladi and Spindel 1991 Biotechniques, 10, pp 744-747). […] Ligand-containing solution was perfused and the current response was recorded. For the luminometric assay, aequorin-loaded oocytes (100 ng/oocyte) were placed individually in cuvettes containing 0.4 ml ND96 and the light emission provoked by ligand addition was recorded using a Bio-Orbit 1251 luminometer (Fisher Sci. Ltd.).

[2] = target: T2, cloned human FP receptor (Homo sapiens, UniProt P43088); experiment: [3H]PGF2α competition binding assay with membranes of pcDNAIamp-hFP transfected COS-M6 cells; conditions: for rank order of potency for competition of [3H]PGF2α specific binding: transfected COS-M6 membranes, 0.03 nM-10 μM competitor
T2 construct: A long open reading frame (1077 bp) was determined which would result in a 359 amino acid polypeptide; expressed in transfected cells; host or cells: COS-M6 cells, transient DEAE-dextran transfection with pcDNAIamp-hFP; 100,000 x g membrane fraction
Method: The recently cloned human prostaglandin F2a (FP) receptor was subcloned into the pcDNA lamp plasmid (Invitrogen) and transfected into COS-M6 cells using the DEAE-dextran method. The cells were maintained in culture for 72 h, then harvested and membranes prepared by differential centrifugation (1000×g for 10 min, then 100,000×g for 30 min) following lysis of the cells by nitrogen cavitation. […] Incubations were conducted for 1 h at room temperature prior to separation of the bound and free radioligand by rapid filtration through Whatman GF/B filters presoaked at 4° C. in washing buffer ([…] (pH 6.0) containing 0.01% bovine serum albumin).

[3] = target: T1, FP receptor; experiment: aequorin luminescence assay in pcDNAIamp-FP-injected Xenopus oocytes; type: cell-based; conditions: aequorin-loaded oocytes, compared to PGE2
Method: as §1

T2 sequence (P43088 whole entry): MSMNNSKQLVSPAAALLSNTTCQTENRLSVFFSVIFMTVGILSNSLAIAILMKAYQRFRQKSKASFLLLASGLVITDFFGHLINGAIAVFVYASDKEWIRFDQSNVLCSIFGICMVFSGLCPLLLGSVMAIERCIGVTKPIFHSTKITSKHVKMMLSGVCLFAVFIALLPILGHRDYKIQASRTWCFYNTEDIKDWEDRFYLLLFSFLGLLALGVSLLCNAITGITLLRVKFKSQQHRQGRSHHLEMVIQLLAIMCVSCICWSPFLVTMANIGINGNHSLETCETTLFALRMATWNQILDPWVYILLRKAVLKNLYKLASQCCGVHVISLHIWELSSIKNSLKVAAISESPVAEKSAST
T1 sequence (P43088 whole entry, the tested form may be a part): as the sequence (P43088 whole entry) above

Compound	agonist-induced Ca2+-dependent Cl- current response [1]	pIC50 [2]	rank order of potency for competition of [3H]PGF2α specific binding [2]	agonist potency from dose-response of aequorin light emission [3]
O=C(O)CCC/C=C\C[C@@H]1[C@@H](/C=C/[C@@H](O)COc2cccc(C(F)(F)F)c2)[C@H](O)C[C@@H]1O (racemic) [fluprostenol]	prominent current responses	8.46	PGF2α=fluprostenol>PGD2>>PGE2≈U46619>iloprost	more potent agonists
CCCCC[C@H](O)/C=C/[C@H]1C(=O)C[C@H](O)[C@@H]1C/C=C\CCCC(=O)O [PGD2]	–	–	PGF2α=fluprostenol>PGD2>>PGE2≈U46619>iloprost	–
CCCCC[C@H](O)/C=C/[C@H]1[C@H](O)CC(=O)[C@@H]1C/C=C\CCCC(=O)O [PGE2]	–	–	PGF2α=fluprostenol>PGD2>>PGE2≈U46619>iloprost	–
CCCCC[C@H](O)/C=C/[C@@H]1[C@@H](C/C=C\CCCC(=O)O)[C@H]2CO[C@@H]1C2 [U46619]	–	–	PGF2α=fluprostenol>PGD2>>PGE2≈U46619>iloprost	–
CC#CCC(C)[C@H](O)/C=C/[C@@H]1[C@H]2C/C(=C/CCCC(=O)O)C[C@H]2C[C@H]1O (some centres unmarked) [iloprost]	–	–	PGF2α=fluprostenol>PGD2>>PGE2≈U46619>iloprost	–
